The record followed here is patent publication US11524962B2, “Substituted pyrrolo[2,3-d]pyrimidines as inhibitors of protein arginine methyl transferase 5 (PRMT5)” (PRELUDE THERAPEUTICS, INCORPORATED, priority 2017, dated 2022).

Assay [1] concerns the target T1, PRMT5/MEP50 complex (Homo sapiens (Human), UniProt O14744). In words: Flash plate assay. Particulars: read-out: Flash Plate IC50. It counts as biochemical. On the procedure: Flash plate assay. Compounds were solubilized, and 3-fold diluted in 100% DMSO. […] Standard reactions were performed in a total volume of 30 μl in assay buffer, with 300 nM histone H4 based AcH4-23 (Anaspec: AS-65002) as substrate. To this was added the PRMT5/MEP50 complex diluted to provide a final assay concentration of 2.5 nM and the compounds were allowed to preincubate for 20 minutes at 37° C. The reaction was initiated by adding S-[3H-methyl]-adenosyl-L-methionine (PerkinElmer: NET155001MC) to final concentration of 1 μM. Following a 30 minutes incubation at 37° C., the reaction was stopped by adding 25 μL of 8M Guanidine HCl. Prepare streptavidin YSI SPA beads (Perkinelmer: RPNQ0012) at 0.3 mg/mL in assay buffer. To each reaction, add 150 μL of SPA beads suspension, and incubated while shaking at room temperature for 30 minutes. The plate was centrifuged at 100×g for 30 second before reading in a scintillation counter. IC50 values were determined by fitting the data to the standard 4 parameters with Hill Slope using GraphPad Prism software. This procedure produced the Flash Plate data in Table 7.

Assay [2] has as its target T1, PRMT5/MEP50 complex. In words: HotSpot Assay. Type of assay: biochemical. On the procedure: HotSpot Assay. Compounds were solubilized and 3-fold diluted in 100% DMSO. […] Standard reactions were performed in a total volume of 50 μl in assay buffer, with histone H2A (5 μM final) as substrate. To this was added the PRMT5/MEP50 complex diluted to provide a final assay concentration of 5 nM and the compounds were allowed to preincubate for 15 to 20 minutes at room temperature. The reaction was initiated by adding S-[3H-methyl]-adenosyl-L-methionine (PerkinElmer) to final concentration of 1 μM. Following a 60 minutes incubation at 30° C., the reaction was stopped by adding 100 μL of 20% TCA. Each reaction was spotted onto filter plate (MultiScreen FB Filter Plate, Millipore), and washed 5 times with PBS buffer, Scintillation fluid was added to the filter plate and read in a scintillation counter. IC50 values were determined by fitting the data to the standard 4 parameters with Hill Slope using GraphPad Prism software. This procedure generated the HotSpot data in Table 7.

T1 sequence (O14744 whole entry): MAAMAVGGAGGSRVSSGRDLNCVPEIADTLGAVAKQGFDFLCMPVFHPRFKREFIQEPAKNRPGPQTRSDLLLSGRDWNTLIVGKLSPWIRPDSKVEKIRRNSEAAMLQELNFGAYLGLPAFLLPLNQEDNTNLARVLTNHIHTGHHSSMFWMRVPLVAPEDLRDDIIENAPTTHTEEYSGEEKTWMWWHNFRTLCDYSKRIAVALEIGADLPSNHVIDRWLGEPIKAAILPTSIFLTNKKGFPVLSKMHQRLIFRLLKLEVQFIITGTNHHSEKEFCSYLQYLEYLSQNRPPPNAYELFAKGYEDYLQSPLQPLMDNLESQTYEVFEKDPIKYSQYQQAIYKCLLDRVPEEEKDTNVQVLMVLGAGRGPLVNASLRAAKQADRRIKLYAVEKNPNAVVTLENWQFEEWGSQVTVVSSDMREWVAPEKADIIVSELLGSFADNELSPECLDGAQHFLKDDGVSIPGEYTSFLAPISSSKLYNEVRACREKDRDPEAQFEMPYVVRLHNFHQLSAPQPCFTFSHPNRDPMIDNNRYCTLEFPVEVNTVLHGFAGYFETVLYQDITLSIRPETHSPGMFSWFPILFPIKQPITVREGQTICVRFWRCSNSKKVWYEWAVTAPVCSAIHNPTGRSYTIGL
T1 sequence (Q9BQA1 whole entry partner): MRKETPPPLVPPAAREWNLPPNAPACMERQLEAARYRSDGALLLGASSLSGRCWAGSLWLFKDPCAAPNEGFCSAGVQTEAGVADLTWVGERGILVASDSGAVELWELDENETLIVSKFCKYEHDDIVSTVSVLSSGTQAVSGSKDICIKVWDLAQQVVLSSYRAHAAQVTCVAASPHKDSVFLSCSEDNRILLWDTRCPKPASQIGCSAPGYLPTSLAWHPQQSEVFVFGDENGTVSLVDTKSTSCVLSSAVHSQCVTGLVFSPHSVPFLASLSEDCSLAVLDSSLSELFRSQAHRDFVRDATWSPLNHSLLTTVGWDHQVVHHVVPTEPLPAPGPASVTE

For `Cc1ncnc2c1ccn2[C@@H]1O[C@H]([C@@H](O)c2ccc3c(c2)CC3)[C@@H](O)[C@H]1O` [Example 47, (2R,3S,4R,5R)-2-((S)-bicyclo[4.2.0]octa-1,3,5-trien-3-yl(hydroxy)methyl)-5-(4-methyl-7H-pyrrolo[2,3-d]pyrimidin-7-yl)tetrahydrofuran-3,4-diol], on PRMT5/MEP50 complex [1], the IC50 is 274 nM.
For `Nc1ncnc2c1c(C(F)(F)F)cn2[C@@H]1O[C@H]([C@H](O)c2ccc3c(c2)CC3)[C@@H](O)[C@H]1O` [Example 38, (2R,3R,4S,5R)-2-(4-amino-5-(trifluoromethyl)-7H-pyrrolo[2,3-d]pyrimidin-7-yl)-5-((R)-bicyclo[4.2.0]octa-1(6),2,4-trien-3-yl(hydroxy)methyl)tetrahydrofuran-3,4-diol], the values for the IC50 at PRMT5/MEP50 complex [1] and against PRMT5/MEP50 complex [2] were 221 nM and 368 nM, respectively.
In the same order, the values of `COc1ncnc2c1ccn2[C@@H]1O[C@H]([C@H](O)c2ccc3c(c2)CC3)[C@@H](O)[C@H]1O` [Example 35, (2R,3S,4R,5R)-2-[(R)-4-bicyclo[4.2.0]octa-1,3,5-trienyl(hydroxy)methyl]-5-(4-methoxypyrrolo[2,3-d]pyrimidin-7-yl)tetrahydrofuran-3,4-diol] are 287 nM and 46 nM.
On to `OCc1ncnc2c1ccn2[C@@H]1O[C@H]([C@H](O)c2ccc3c(c2)CC3)[C@@H](O)[C@H]1O` [Example 43, (2R,3S,4R,5R)-2-((R)-bicyclo[4.2.0]octa-1,3,5-trien-3-yl(hydroxy)methyl)-5-(4-(hydroxymethyl)-7H-pyrrolo[2,3-d]pyrimidin-7-yl)tetrahydrofuran-3,4-diol], for which the IC50 at PRMT5/MEP50 complex [1] worked out at 181 nM.
Consider `Nc1ncnc2c1c(I)cn2[C@@H]1O[C@H]([C@H](O)c2ccc3c(c2)CC3)[C@@H](O)[C@H]1O` [Example 37, (2R,3R,4S,5R)-2-(4-amino-5-iodo-7H-pyrrolo[2,3-d]pyrimidin-7-yl)-5-((R)-bicyclo[4.2.0]octa-1(6),2,4-trien-3-yl(hydroxy)methyl)tetrahydrofuran-3,4-diol], for which the IC50 came out at 31 nM at PRMT5/MEP50 complex [1] and 12 nM against PRMT5/MEP50 complex [2].
Taken in the same sequence, the figures for `CCO/N=c1\[nH]cnc2c1ccn2[C@@H]1O[C@H]([C@H](O)c2ccc3c(c2)CC3)[C@@H](O)[C@H]1O` [Example 21, 7-((2R,3R,4S,5R)-5-((R)-bicyclo[4.2.0]octa-1(6),2,4-trien-3-yl(hydroxy)methyl)-3,4-dihydroxytetrahydrofuran-2-yl)-3,7-dihydro-4H-pyrrolo[2,3-d]pyrimidin-4-one O-ethyl oxime] were 148 nM and 153 nM.
For `CCCCc1ncnc2c1ccn2[C@@H]1O[C@H]([C@H](O)c2ccc3c(c2)CC3)[C@@H](O)[C@H]1O` [Example 42, (2R,3S,4R,5R)-2-((R)-bicyclo[4.2.0]octa-1,3,5-trien-3-yl(hydroxy)methyl)-5-(4-butyl-7H-pyrrolo[2,3-d]pyrimidin-7-yl)tetrahydrofuran-3,4-diol], the IC50 at PRMT5/MEP50 complex [1] was 392 nM.
With `CO/N=c1\[nH]cnc2c1ccn2[C@@H]1O[C@H]([C@H](O)c2ccc3c(c2)CC3)[C@@H](O)[C@H]1O` [Example 20, 7-((2R,3R,4S,5R)-5-((R)-bicyclo[4.2.0]octa-1(6),2,4-trien-3-yl(hydroxy)methyl)-3,4-dihydroxytetrahydrofuran-2-yl)-3,7-dihydro-4H-pyrrolo[2,3-d]pyrimidin-4-one O-methyl oxime], the half-inhibitory concentration (IC50) at PRMT5/MEP50 complex [1] came out at 121 nM; against PRMT5/MEP50 complex [2] it was 32 nM.
As for `C=Cc1ncnc2c1ccn2[C@@H]1O[C@H]([C@H](O)c2ccc3c(c2)CC3)[C@@H](O)[C@H]1O` [Example 46, (2R,3S,4R,5R)-2-((R)-bicyclo[4.2.0]octa-1(6),2,4-trien-3-yl(hydroxy)methyl)-5-(4-vinyl-7H-pyrrolo[2,3-d]pyrimidin-7-yl)tetrahydrofuran-3,4-diol], the IC50 at PRMT5/MEP50 complex [1] is 2060 nM.
Regarding `CCO/N=c1\[nH]cnc2c1ccn2[C@@H]1O[C@H]([C@](C)(O)c2ccc3c(c2)CC3)[C@@H](O)[C@H]1O` [Example 22, 7-((2R,3R,4S,5S)-5-((R)-1-(bicyclo[4.2.0]octa-1(6),2,4-trien-3-yl)-1-hydroxyethyl)-3,4-dihydroxytetrahydrofuran-2-yl)-3,7-dihydro-4H-pyrrolo[2,3-d]pyrimidin-4-one O-ethyl oxime], the results for the half-maximal inhibitory concentration (IC50) on PRMT5/MEP50 complex [1] and against PRMT5/MEP50 complex [2] were 189 nM and 57 nM, respectively.
As to `O[C@@H]1[C@H](O)[C@@H]([C@H](O)c2ccc3c(c2)CC3)O[C@H]1n1ccc2c(CCl)ncnc21` [Example 51, (2R,3S,4R,5R)-2-((R)-bicyclo[4.2.0]octa-1(6),2,4-trien-3-yl(hydroxy)methyl)-5-(4-(chloromethyl)-7H-pyrrolo[2,3-d]pyrimidin-7-yl)tetrahydrofuran-3,4-diol], the IC50 on PRMT5/MEP50 complex [1] is 51 nM.
On the same count and under the same terms, the figure for `O[C@@H]1[C@H](O)[C@@H]([C@H](O)c2ccc3c(c2)CC3)O[C@H]1n1ccc2c(CCOCc3ccccc3)ncnc21` [Example 55, (2R,3R,4S,5R)-2-(4-(2-(benzyloxy)ethyl)-7H-pyrrolo[2,3-d]pyrimidin-7-yl)-5-((R)-bicyclo[4.2.0]octa-1(6),2,4-trien-3-yl(hydroxy)methyl)tetrahydrofuran-3,4-diol] is 200 nM; for `C=C(C)c1ncnc2c1ccn2[C@@H]1O[C@H]([C@H](O)c2ccc3c(c2)CC3)[C@@H](O)[C@H]1O` [Example 40, (2R,3S,4R,5R)-2-((R)-bicyclo[4.2.0]octa-1(6),2,4-trien-3-yl(hydroxy)methyl)-5-(4-(prop-1-en-2-yl)-7H-pyrrolo[2,3-d]pyrimidin-7-yl)tetrahydrofuran-3,4-diol] it is 1030 nM.
Same read-out and setting: the figure for `CCOCc1ncnc2c1ccn2[C@@H]1O[C@H]([C@H](O)c2ccc3c(c2)CC3)[C@@H](O)[C@H]1O` [Example 50, (2R,3S,4R,5R)-2-((R)-bicyclo[4.2.0]octa-1(6),2,4-trien-3-yl(hydroxy)methyl)-5-(4-(ethoxymethyl)-7H-pyrrolo[2,3-d]pyrimidin-7-yl)tetrahydrofuran-3,4-diol] is 2520 nM.
The same measure, in the same setting: the figure for `CN(C)C(=O)Nc1ncnc2c1ccn2[C@@H]1O[C@H]([C@H](O)c2ccc3c(c2)CC3)[C@@H](O)[C@H]1O` [Example 23, 3-(7-((2R,3R,4S,5R)-5-((R)-bicyclo[4.2.0]octa-1(6),2,4-trien-3-yl(hydroxy)methyl)-3,4-dihydroxytetrahydrofuran-2-yl)-7H-pyrrolo[2,3-d]pyrimidin-4-yl)-1,1-dimethylurea] is 697 nM; for `CC(C)c1ncnc2c1ccn2[C@@H]1O[C@H]([C@H](O)c2ccc3c(c2)CC3)[C@@H](O)[C@H]1O` [Example 41, (2R,3S,4R,5R)-2-((R)-bicyclo[4.2.0]octa-1(6),2,4-trien-3-yl(hydroxy)methyl)-5-(4-isopropyl-7H-pyrrolo[2,3-d]pyrimidin-7-yl)tetrahydrofuran-3,4-diol] it is 230 nM.
Consider `C[C@](O)(c1ccc2c(c1)CC2)[C@H]1O[C@@H](n2ccc3c(N)ncnc32)[C@H](O)[C@@H]1O` [Example 39, (2R,3R,4S,5S)-2-(4-amino-7H-pyrrolo [2,3-d]pyrimidin-7-yl)-5-((S)-1-(bicyclo[4.2.0]octa-1(6),2,4-trien-3-yl)-1-hydroxyethyl)tetrahydrofuran-3,4-diol], for which the IC50 on PRMT5/MEP50 complex [1] amounted to 1240 nM.
